Results as given in patent publication US8933039B2 (NPS Pharmaceuticals, Inc., priority 1995, dated 2015).
Non-standard residues stand in square brackets, D forms with d. Residues, ends and D or L forms follow the SMILES beside them. *: point of attachment. Desaminotyrosyl = O=C(CCc1ccc(O)cc1)*; Tle = CC(C)(C)[C@H](N)C(=O)O

How the values were obtained:
[1] = tested on: CD1 mice; assay: Intestinotrophic activity assessment: small bowel weight in mice; format: in vivo; details: for % Activity (small bowel inducing activity relative to native rat GLP-2(1-33) = 100%): mice, as Example 4; for % Increase in small bowel weight: CD1 mice, 2.5 μg peptide s.c. b.i.d. in PBS, sacrificed 10 or 14 days, relative to vehicle only
In short: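 Female CD1 mice, 6 weeks old (n=3-4/group), given 2.5 μg peptide s.c. b.i.d. in PBS; sacrificed 10 or 14 days later after ≥20 h fast. Small bowel (pylorus to cecum) weighed; percent change versus vehicle mice, also expressed relative to rat GLP-2(1-33) set as 100%.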

[2] = biological target: DPP-IV (Homo sapiens, UniProt P27487); assay: Assay for resistance to dipeptidyl peptidase IV (RP-HPLC of cleavage product); details: human, isolated human placental DPP-IV (dipeptidyl peptidase IV), pH 7.4, % Cleaved by DPP-IV, as Example 3: human placental DPP-IV, 37° C., PBS pH 7.4
Chain of DPP-IV (P27487 whole entry): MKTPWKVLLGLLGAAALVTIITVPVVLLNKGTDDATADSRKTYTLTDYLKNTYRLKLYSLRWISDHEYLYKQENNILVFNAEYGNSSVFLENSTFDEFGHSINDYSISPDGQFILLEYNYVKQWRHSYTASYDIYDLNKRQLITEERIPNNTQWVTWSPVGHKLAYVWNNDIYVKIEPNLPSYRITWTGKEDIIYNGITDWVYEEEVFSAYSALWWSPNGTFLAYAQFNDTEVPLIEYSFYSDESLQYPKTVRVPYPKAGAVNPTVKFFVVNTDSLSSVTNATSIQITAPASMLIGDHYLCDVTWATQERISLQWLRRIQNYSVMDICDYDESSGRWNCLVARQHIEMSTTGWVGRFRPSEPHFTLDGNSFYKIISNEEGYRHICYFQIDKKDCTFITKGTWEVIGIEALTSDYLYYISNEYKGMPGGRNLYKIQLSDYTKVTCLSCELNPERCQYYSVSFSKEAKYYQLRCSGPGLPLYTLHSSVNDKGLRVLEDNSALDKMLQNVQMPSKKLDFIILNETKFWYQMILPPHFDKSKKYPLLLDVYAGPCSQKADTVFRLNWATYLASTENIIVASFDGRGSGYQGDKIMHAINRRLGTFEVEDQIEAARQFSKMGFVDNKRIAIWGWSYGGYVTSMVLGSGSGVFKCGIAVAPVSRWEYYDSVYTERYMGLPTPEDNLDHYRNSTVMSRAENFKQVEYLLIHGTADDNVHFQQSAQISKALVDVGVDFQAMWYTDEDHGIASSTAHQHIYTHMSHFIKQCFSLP

| metabolised at 24 h, 0.19 mg/ml [2] [%] | Compound | % Activity (small bowel inducing activity relative to native rat GLP-2(1-33) = 100%) [1] [%] | % Increase in small bowel weight [1] [%] |
| --- | --- | --- | --- |
| 15 | CC[C@H](C)[C@H](NC(=O)[C@H](Cc1ccccc1)NC(=O)[C@H](CC(=O)O)NC(=O)[C@H](CCCNC(=N)N)NC(=O)[C@H](C)NC(=O)[C@H](C)NC(=O)[C@H](CC(C)C)NC(=O)[C@H](CC(N)=O)NC(=O)[C@H](CC(=O)O)NC(=O)[C@H](CC(C)C)NC(=O)[C@@H](NC(=O)[C@@H](NC(=O)[C@H](CC(N)=O)NC(=O)[C@H](CCSC)NC(=O)[C@H](CCC(=O)O)NC(=O)[C@H](CC(=O)O)NC(=O)[C@H](CO)NC(=O)[C@H](Cc1ccccc1)NC(=O)[C@H](CO)NC(=O)CNC(=O)[C@H](CC(=O)O)NC(=O)[C@H](C)NC(=O)CCc1ccc(O)cc1)[C@@H](C)O)[C@@H](C)CC)C(=O)N[C@@H](CC(N)=O)C(=O)N[C@@H](Cc1c[nH]c2ccccc12)C(=O)N[C@@H](CC(C)C)C(=O)N[C@H](C(=O)N[C@@H](CCC(N)=O)C(=O)N[C@H](C(=O)N[C@@H](CCCCN)C(=O)N[C@H](C(=O)N[C@H](C(=O)N[C@@H](CC(=O)O)C(=O)O)[C@@H](C)O)[C@@H](C)CC)[C@@H](C)O)[C@@H](C)CC [[desNH2Tyr1]hGLP-2(1-33)] (Desaminotyrosyl-ADGSFSDEMNTILDNLAARDFINWLIQTKITD-OH) | 125 |  |
| 0 | CC[C@H](C)[C@H](NC(=O)[C@H](Cc1ccccc1)NC(=O)[C@H](CC(=O)O)NC(=O)[C@H](CCCNC(=N)N)NC(=O)[C@H](C)NC(=O)[C@H](C)NC(=O)[C@H](CC(C)C)NC(=O)[C@H](CC(N)=O)NC(=O)[C@H](CC(=O)O)NC(=O)[C@H](CC(C)C)NC(=O)[C@@H](NC(=O)[C@@H](NC(=O)[C@H](CC(N)=O)NC(=O)[C@H](CCSC)NC(=O)[C@H](CCC(=O)O)NC(=O)[C@H](CC(=O)O)NC(=O)[C@H](CO)NC(=O)[C@H](Cc1ccccc1)NC(=O)[C@H](CO)NC(=O)CNC(=O)[C@H](CC(=O)O)NC(=O)[C@@H](NC(=O)[C@@H](N)Cc1c[nH]cn1)C(C)(C)C)[C@@H](C)O)[C@@H](C)CC)C(=O)N[C@@H](CC(N)=O)C(=O)N[C@@H](Cc1c[nH]c2ccccc12)C(=O)N[C@@H](CC(C)C)C(=O)N[C@H](C(=O)N[C@@H](CCC(N)=O)C(=O)N[C@H](C(=O)N[C@@H](CCCCN)C(=O)N[C@H](C(=O)N[C@H](C(=O)N[C@@H](CC(=O)O)C(=O)O)[C@@H](C)O)[C@@H](C)CC)[C@@H](C)O)[C@@H](C)CC [[tBuGly2]hGLP-2] (H-H[Tle]DGSFSDEMNTILDNLAARDFINWLIQTKITD-OH) | 123 |  |
| 60 | CC[C@H](C)[C@H](NC(=O)[C@H](Cc1ccccc1)NC(=O)[C@H](CC(=O)O)NC(=O)[C@H](CCCNC(=N)N)NC(=O)[C@H](C)NC(=O)[C@H](C)NC(=O)[C@H](CC(C)C)NC(=O)[C@H](CC(N)=O)NC(=O)[C@H](CC(=O)O)NC(=O)[C@H](CC(C)C)NC(=O)[C@@H](NC(=O)[C@@H](NC(=O)[C@H](CC(N)=O)NC(=O)[C@H](CCSC)NC(=O)[C@H](CCC(=O)O)NC(=O)[C@H](CC(=O)O)NC(=O)[C@H](CO)NC(=O)[C@H](Cc1ccccc1)NC(=O)[C@H](CO)NC(=O)CNC(=O)[C@H](CC(=O)O)NC(=O)[C@H](C)NC(=O)[C@@H](N)Cc1c[nH]cn1)[C@@H](C)O)[C@@H](C)CC)C(=O)N[C@@H](CC(N)=O)C(=O)N[C@@H](Cc1c[nH]c2ccccc12)C(=O)N[C@@H](CC(C)C)C(=O)N[C@H](C(=O)N[C@@H](CCC(N)=O)C(=O)N[C@H](C(=O)N[C@@H](CCCCN)C(=O)N[C@H](C(=O)N[C@H](C(=O)N[C@@H](CC(=O)O)C(=O)O)[C@@H](C)O)[C@@H](C)CC)[C@@H](C)O)[C@@H](C)CC [hGLP-2(1-33), reference compound] | 100 |  |
| 54 | H-HADGSFSDEMNTILDNLAARDFINFLIQTKITD-OH [[Phe25]hGLP-2(1-33)] | 114 |  |
| 48 | H-HADGSFSDEMNTILDNLAARDFINYLIQTKITD-OH [[Tyr25]hGLP-2(1-33)] | 64 |  |
| 0 | H-HAPGSFSDEMNTILDNLAARDFINWLIQTKITD-OH [[Pro3]hGLP-2(1-33)] | 140 |  |
| 0 | H-HFDGSFSDEMNTILDNLAARDFINWLIQTKITD-OH [[Phe2]hGLP-2(1-33)] | 50 |  |
| 0 | H-HKDGSFSDEMNTILDNLAARDFINWLIQTKITD-OH [[Lys2]hGLP-2(1-33)] | 90 |  |
| 0 | H-HMDGSFSDEMNTILDNLAARDFINWLIQTKITD-OH [[Met2]hGLP-2(1-33)] | 170 |  |
| 16 | H-HPDGSFSDEMNTILDNLAARDFINWLIQTKITD-OH [[Pro2]hGLP-2(1-33)] | 50 |  |
| 0 | H-HSDGSFSDEMNTILDNLAARDFINWLIQTKITD-OH [[Ser2]hGLP-2(1-33)] | 167 |  |

The remaining lines, values behind:

| Compound | metabolised at 24 h, 0.19 mg/ml [2] [%] | % Activity (small bowel inducing activity relative to native rat GLP-2(1-33) = 100%) [1] [%] | % Increase in small bowel weight [1] [%] |
| --- | --- | --- | --- |
| Ac-HADGSFSDEMNTILDNLATRDFINWLIQTKITD-OH [Ac-ratGLP-2(1-33)] | 0 | 44 |  |
| H-AGDGSFSDEMNTILDNLAARDFINWLIQTKITD-OH [[Ala1,Gly2]hGLP-2(1-33)] | 0 | 53 | 23 |
| H-DADGSFSDEMNTILDNLAARDFINWLIQTKITD-OH [[Asp1]hGLP-2(1-33)] | 0 | 60 |  |
| H-HADASFSDEMNTILDNLATRDFINWLIQTKITD-OH [[Ala4]ratGLP-2(1-33)] | 72 | 59 | 30 |
| H-HADGAFADEMNTILDNLAARDFINWLIQTKITD-OH [[Ala5, Ala7]hGLP-2(1-33)] | 77 | 108 |  |
| H-HADGSFSDEMNTILDNLAARDFINWLIQTKITE-OH [[Glu33]hGLP-2(1-33)] | 55 | 121 |  |
| H-HADGSFSDEMNTILDNLAARDFINWLIQTRITD-OH [[Arg30]hGLP-2(1-33)] | 59 | 103 |  |
| H-HAEGSFSDEMNTILDNLATRDFINWLIQTKITD-OH [[Glu3]ratGLP-2(1-33)] | 50 | 65 | 33 |
| H-HDDGSFSDEMNTILDNLAARDFINWLIQTKITD-OH [[Asp2]hGLP-2(1-33)] | 0 | 83 |  |
| H-HEDGSFSDEMNTILDNLAARDFINWLIQTKITD-OH [[Glu2]hGLP-2(1-33)] | 0 | 93 |  |
| H-HGAGSFSDEMNTILDNLAARDFINWLIQTKITD-OH [[Gly2,Ala3]hGLP-2(1-33)] | 0 | 44 | 18 |
| H-HGDASFSDEMNTILDNLAARDFINWLIQTKITD-OH [[Gly2,Ala4]hGLP-2(1-33)] | 0 | 100 | 36 |
| H-HGDGAFSDEMNTILDNLAARDFINWLIQTKITD-OH [[Gly2,Ala5]hGLP-2(1-33)] | 0 | 136 | 38 |
| H-HGDGSFSDEMNTILDNLAARDFIAWLIQTKITD-OH [[Gly2,Ala24]hGLP-2(1-33)] | 0 | 139 | 67 |
| H-HHDGSFSDEMNTILDNLAARDFINWLIQTKITD-OH [[His2]hGLP-2(1-33)] | 0 | 0 |  |
| H-HIDGSFSDEMNTILDNLAARDFINWLIQTKITD-OH [[Ile2]hGLP-2(1-33)] | 0 | 90 |  |
| H-HNDGSFSDEMNTILDNLAARDFINWLIQTKITD-OH [[Asn2]hGLP-2(1-33)] | 0 | 67 |  |
| H-HQDGSFSDEMNTILDNLAARDFINWLIQTKITD-OH [[Gln2]hGLP-2(1-33)] | 0 | 100 |  |
